Like-named read-outs stand apart in the source and are kept apart here.
Legend:
[1] = test system: dsDNA (double stranded control sequence); experiment: FRET melting assay, duplex control; assay type: binding; details: Table S5, newly synthesized compounds, 50:1
Protocol: (§1) To evaluate stabilizing properties of the ligands in a complex with oligodeoxyribonucleotides (ODNs) melting with fluorescence registration was used. ODN (0.5 μM) (Table 1), labeled with 6-carboxyfluorescein (FAM) and 6-carboxytetramethylrhodamine (TAMRA) at the 5′- and 3′-end, respectively, were folded in lithium cacodylate buffer (10 mM, pH 7.4) with 100 mM KCl by heating at 95 °C for 5 min and gradually cooling to r.t. GFP chromophore analogs (5 mM solution in DMSO) were diluted with the same buffer to the final concentration of 25 μM and mixed with an equal volume of 0.5 μM ODN solution resulting in a molar ratio of 50:1 (total volume was 50 μL). For the titration experiments molar ratios of 20:1 and 2:1 were used. Samples were analyzed using DTprime qPCR system (DNA-Technology LLC, Moscow, Russia). Fluorescence was registered by detection of FAM emission at 520 nm upon excitation at 495 nm in the temperature range of 30–95 °C with 1 °C/min gradient. Tm was determined using the instrument software and ΔTm was calculated relative to ODN Tm in a buffer solution containing 0.25% (v/v) DMSO. The primary and secondary screening were carried out in singlicate and triplicate, respectively.
(§2) Initially we screened an in-house library of 440 synthetic GFP chromophore analogues for interaction with HIV-1 LTR-III sequence, which modulates HIV-1 promoter activity, using high-throughput screening (HTS) FRET melting assay (Table S1). […] We selected 11 compounds (Figure 2A), displaying stabilization in the range of 2.4–7.8 °C, and evaluated their ability to stabilize other G4-forming sequences, including human telomeric sequence Telo (one of the most common G4 structures in the human genome, having two conformations, Hybrid-1 and Hybrid-2 [36]) and model G4 […] (the G-rich Pu39 region of the P1 promoter of the oncogene BCL-2, an apoptosis regulator [37] with polymorphic conformational structure), as well as double stranded oligonucleotide (duplex) control sequence (Figure 2B, Table S2).

[2] = test system: Pu39 G4 (G-rich region of the P1 promoter of BCL-2); experiment: FRET melting assay, Pu39; assay type: binding, human; details: Table S5, newly synthesized compounds, 50:1
Protocol: as §1, §2

[3] = test system: HIV-1 strain NL4-3 in MT4 cells; experiment: Cytopathic effect inhibition test; assay type: cell-based; details: HIV-1 NL4-3, MT4 cells
Protocol: Human T cell leukemia (MT4) cell line was maintained in RPMI-1640 (“Chumakov FSC R&D IBP RAS”, Moscow, Russia) with 10% of fetal bovine serum (FBS, Invitrogen, Waltham, MA, USA), L-glutamine and gentamicin. Green monkey kidney (Vero, Beach, FL, USA) cell line was maintained in 2 × Eagle MEM (“Chumakov FSC R&D IBP RAS”, Russia) with 5% FBS with L-glutamine, penicillin and streptomycin. Cell cultures were incubated in the present of 5% CO2 at 37 °C. HIV-1 strain NL4-3 was obtained via cell transfection with pNL4-3 3 (ARP2006, NIBSC, Potters Bar, UK).
Eight two-fold dilutions of stock solutions of the compounds in two replicates were prepared in RPMI-1640 (“Chumakov FSC R&D IBP RAS”, Russia). Compound dilutions were mixed with equal volumes of the virus suspension containing 100 CCID50 (50% tissue culture infectious dose). Control cells were treated with the same sequential concentrations of DMSO as in compound dilutions. Then, the MT4 cell suspension (approx. 2 × 10^4 cells per well) in RPMI-1640 containing 10% FBS (Invitrogen, South America) was added to experimental mixtures. A final concentration series started from 25 μM. Each experiment contained virus dose titration in the inoculate to assure the acceptable dose-range. After a nine-day incubation (5% CO2, at 37 °C), cytopathic effect (CPE) was visually accessed via microscope. EC50 values were calculated according to the Karber method. All experimental procedures were performed in two replicates and were repeated two to four times. Mean and SD were calculated with OriginPro 8 (OriginLab, St. Louis, MO, USA).

Cytotoxicity test = assay type: cell-based; details: human, MT4 cells (human T cell leukemia), Figure 7
Protocol: (§3) Green monkey kidney (Vero, Beach, FL, USA) cell line was maintained in 2 × Eagle MEM (“Chumakov FSC R&D IBP RAS”, Russia) with 5% FBS with L-glutamine, penicillin and streptomycin. […] HIV-1 strain NL4-3 was obtained via cell transfection with pNL4-3 3 (ARP2006, NIBSC, Potters Bar, UK).
(§4) MT4 cell suspensions were added to the wells with compound dilutions and DMSO control (approx. 2 × 10^4 cells per well). […] All experimental procedures were performed in two replicates and were repeated two to four times. Mean and SD were calculated with OriginPro 8 (OriginLab, St. Louis, MO, USA).

MT4 cells = experiment: Cytotoxicity test; assay type: cell-based; details: Table S12, nine days
Protocol: as §3, §4

[4] = test system: human telomeric sequence Telo G4; experiment: FRET melting assay, Telo; assay type: binding; details: Table S5, newly synthesized compounds, 50:1
Protocol: as §1, §2

[5] = test system: HIV-1 LTR-III G-quadruplex (FAM/TAMRA-labeled LTR-III); experiment: FRET melting assay, LTR-III G4; assay type: binding; details: for LTR III stabilization: Figure 7, stabilization group; for LTR-III (average): Table S12, average stabilization
Method in brief: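 Melting is followed by FAM fluorescence (ex 495/em 520 nm) while heating at 1 °C/min from 30 to 95 °C. Labelled ODN at 0.5 μM, pre-annealed in 10 mM Li cacodylate, 100 mM KCl, pH 7.4, mixed with ligand at 50:1 (25 μM), or 20:1 and 2:1 for titration. ΔTm is relative to the 0.25% DMSO buffer control.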

LTR-III G4 = experiment: NMR titration of LTR-III; assay type: binding, HIV-1; details: 50 μM LTR-III, 1D 1H NMR
Protocol: All NMR spectra were acquired on a Bruker Avance III 800 MHz spectrometer equipped with a cryoprobe. Titration of 50 μM LTR-III samples (70 mM KCl, 20 mM potassium phosphate buffer, pH 7.0) with 2 mM ZS260.1 and N979 ligands dissolved in DMSO was performed. 1D ^1H NMR spectra were used to track the changes during titration. ^1H-^13C HSQC and HMBC at 35 °C were used to transfer the assignment of H6/C6 and H8/C8 signals from previously obtained assignment. To identify the LTR-III residues that are most influenced by addition of ZS260.1 ligand, the intensities of cross-peaks in the ^1H-^13C HSQC spectra measured with and without added ligand were compared. The H6/C6 and H8/C8 cross-peak intensities were measured at molar ratio of LTR-III to ZS260.1 of 5:1 (35 °C, 0.5 mM LTR-III G4).
The ligand binding processes are probably in intermediate to fast regime on the NMR timescale. Therefore, the resonances of residues that are close to the ligand binding site (s) become broadened and attenuated (intermediate exchange regime).
To determine affinity of the compound ZS260.1 to LTR-III G4 we analyzed changes in H8 chemical shift of G8 residue in 1D ^1H NMR spectra. […] The titration data were successfully approximated by simple chemical reaction A + B = AB, that implies one to one stoichiometry of binding that is consistent with literature data (Suppl. S8). The dissociation constant for the LTR-III/ZS260.1 complex (Kd) was on the order of 3 μM.

[6] = test system: Telo (DNA, G4) AGGGTTAGGGTTAGGGTTAGGG; experiment: FRET melting; details: 100 mM KCl; 10 mM lithium cacodylate pH 7.4, 0.25% DMSO; 12.5 μM compound, 0.25 μM DNA (50:1)
[7] = test system: dsDNA (DNA, duplex) CTATAGCGCGCTATAG; experiment: FRET melting; details: 100 mM KCl; 10 mM lithium cacodylate pH 7.4, 0.25% DMSO; 12.5 μM compound, 0.25 μM DNA (50:1)
[8] = Human immunodeficiency virus 1, NL43, 216 h, Table S12, CPE, nine-day incubation, read-out: EC50
[9] = Human immunodeficiency virus 1, NL43, Figure 7, read-out: Antiviral activity EC50 (HIV)
[10] = Table S3 primary screening of newly synthesized analogs, 50:1

SMILES	ΔTm Duplex [1] [°C]	ΔTm Pu39 [2] [°C]	EC50 [3, 8] [µM]	EC50 [3, 9] [µM]	CC50 at 9 days (Cytotoxicity test) [µM]	СС50 (MT4) (MT4 cells) [µM]	ΔTm Telo [4] [°C]	LTR III stabilization [5] [°C]	LTR-III ΔTm [5, 10] [°C]	LTR-III (average) [5]	EC50 ([3]; Table S12, CPE, nine-day incubation)	interaction with LTR-III by NMR titration (selective signal attenuation) (LTR-III G4)	LTR-III ΔTm ([5]; Table S1 primary screening, ligand:ODN 50:1, singlicate) [°C]	LTR-III ΔTm ([5]; Table S1 primary screening, ligand:ODN 50:1, singlicate, listed as N979)	ΔTm [6] [°C]	ΔTm [7] [°C]	ΔTm, titration ([5]; LTR-III G4/ligand molar ratio 1:20) [°C]	ΔTm, titration ([5]; LTR-III G4/ligand molar ratio 1:50) [°C]
COc1cc(/C=C2N=C(/C=C/C=C/c3ccc(N(C)C)cc3)N(C)C\2=O)cc(OC)c1O [N1195]	0.1±0.1	1.8±0.1	3.78 ± 0.91	3.8 ± 0.9	6 ± 3	5.9 ± 2.6	0.9±0.3	> 3	4.2	4,2 °C	–	–	–	–	–	–	–	–
COc1c(O)ccc(/C=C2N=C(/C=C/c3cc(Cl)nc(Cl)c3)N(C)C\2=O)c1OC [N1198]	0±0.1	0.1±0.1	1.78 ± 0.38	1.8 ± 0.4	3 ± 1	2.8 ± 1.1	0.9±0.2	> 3	6.5	6,5 °C	micromolar range	–	–	–	–	–	–	–
COc1cc(/C=C2\N=C(C)N(C)C2=O)cc(OC)c1O [N 979]	–	–	–	–	–	–	–	–	–	–	–	interact with the LTR-III molecule	-0.2	non-stabilizing	–	–	–	–
COc1ccc(/C=C/C=C/C2=NC(=C\c3ccc(O)cc3OC)/C(=O)N2C)cc1	–	–	–	–	–	–	–	–	–	–	–	–	–	–	3.9±0.1	-0.1±0.04	–	–
COc1c(O)ccc(/C=C2N=C(/C=C/c3ccnc4ccccc34)N(C)C\2=O)c1OC [N1197]	-0.4±0.2	7±0.7	–	–	1.7 ± 0.8	1.66 ± 0.79	4.6±0.2	> 3	11.3	11,3 °C	–	–	–	–	–	–	8.5±0.3	11.4±0.2
